The source of these data is PMC7143535, “Synthesis, Pharmacological and Structural Characterization of Novel Conopressins from Conus miliaris” (Marine Drugs, 2020).

The structures appear in SMILES notation. Where two headings read alike, the source gives them in different places. Residues, ends and D or L forms follow the SMILES beside them.

Assay [1] has as its target T1, human vasopressin-1b receptor (hV1bR) (Homo sapiens, UniProt P47901).
T1 construct: host or cells: COS-1
T1 sequence (P47901 1-424): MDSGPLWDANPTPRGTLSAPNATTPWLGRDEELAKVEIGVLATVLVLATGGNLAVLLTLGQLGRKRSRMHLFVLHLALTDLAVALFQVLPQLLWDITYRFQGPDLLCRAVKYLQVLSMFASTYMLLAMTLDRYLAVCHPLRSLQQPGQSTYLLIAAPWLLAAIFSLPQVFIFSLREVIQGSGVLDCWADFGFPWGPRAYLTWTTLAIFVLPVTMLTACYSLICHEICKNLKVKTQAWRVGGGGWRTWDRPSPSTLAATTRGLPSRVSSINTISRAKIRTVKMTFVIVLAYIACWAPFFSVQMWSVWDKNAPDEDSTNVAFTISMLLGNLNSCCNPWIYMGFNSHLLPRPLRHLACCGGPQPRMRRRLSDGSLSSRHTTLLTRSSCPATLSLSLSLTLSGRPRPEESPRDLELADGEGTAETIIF
As to the kind of experiment: cell-based. The assay is classed as cell-based.

Assay [2] has as its target T2, human oxytocin receptor (hOTR) (Homo sapiens, UniProt P30559).
T2 construct: host or cells: COS-1
T2 sequence (P30559 1-389): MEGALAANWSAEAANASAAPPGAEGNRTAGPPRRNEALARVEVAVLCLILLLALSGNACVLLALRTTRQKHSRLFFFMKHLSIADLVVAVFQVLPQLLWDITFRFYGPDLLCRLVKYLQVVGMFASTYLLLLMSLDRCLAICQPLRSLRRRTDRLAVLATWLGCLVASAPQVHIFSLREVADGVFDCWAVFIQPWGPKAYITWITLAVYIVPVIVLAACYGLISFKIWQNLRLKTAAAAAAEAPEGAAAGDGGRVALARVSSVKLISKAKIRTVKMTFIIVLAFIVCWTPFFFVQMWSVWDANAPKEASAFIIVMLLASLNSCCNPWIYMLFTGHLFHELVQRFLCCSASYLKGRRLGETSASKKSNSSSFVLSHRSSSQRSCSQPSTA
The assay can be described thus: cell-based. The assay is classed as cell-based.

For assay [3], the target named is T3, human vasopressin2 receptor (hV2R) (Homo sapiens, UniProt P30518).
T3 construct: host or cells: COS-1
T3 sequence (P30518 whole entry): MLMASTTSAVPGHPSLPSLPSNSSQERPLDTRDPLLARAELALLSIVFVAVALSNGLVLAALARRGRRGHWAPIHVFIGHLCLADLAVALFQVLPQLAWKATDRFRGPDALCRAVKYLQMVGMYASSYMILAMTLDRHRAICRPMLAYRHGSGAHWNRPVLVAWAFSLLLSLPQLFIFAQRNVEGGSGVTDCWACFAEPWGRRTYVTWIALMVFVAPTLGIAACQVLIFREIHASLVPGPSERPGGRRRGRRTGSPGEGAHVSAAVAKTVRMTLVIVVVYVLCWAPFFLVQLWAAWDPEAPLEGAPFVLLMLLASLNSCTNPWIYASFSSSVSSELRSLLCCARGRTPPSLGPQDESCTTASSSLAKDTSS
The assay can be described thus: cell-based.

Assay [4] concerns the target zebrafish vasopressin1-a1 receptor (ZF V1a1R). The class given is cell-based, zebrafish (Danio rerio).
In assay [5] the target is zebrafish vasopressin1-a2 receptor (ZF V1a2R). The assay is classed as cell-based, zebrafish (Danio rerio).
The target of assay [6] is T4, human vasopressin-1a receptor (hV1aR) (Homo sapiens, UniProt P37288).
T4 construct: host or cells: COS-1
T4 sequence (P37288 whole entry): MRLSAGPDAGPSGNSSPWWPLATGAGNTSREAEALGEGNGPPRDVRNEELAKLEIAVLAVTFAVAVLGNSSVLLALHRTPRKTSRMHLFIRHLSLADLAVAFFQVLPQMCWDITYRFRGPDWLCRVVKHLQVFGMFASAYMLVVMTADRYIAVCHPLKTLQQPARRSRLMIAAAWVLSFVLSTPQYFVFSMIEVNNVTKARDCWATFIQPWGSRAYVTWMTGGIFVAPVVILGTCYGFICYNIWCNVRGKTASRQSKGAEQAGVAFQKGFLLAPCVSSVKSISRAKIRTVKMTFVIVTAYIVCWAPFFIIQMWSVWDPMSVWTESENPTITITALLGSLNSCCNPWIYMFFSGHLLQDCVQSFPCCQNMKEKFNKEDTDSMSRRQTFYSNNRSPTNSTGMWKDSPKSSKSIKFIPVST
As to the kind of experiment: cell-based.

Assay [7] deals with zebrafish vasopressin2 receptor (ZF V2R). The assay is classed as cell-based, zebrafish (Danio rerio).
Assay [8] has as its target T5, zebrafish oxytocin/isotocin receptor (ZF oxy/isoR) (Danio rerio, UniProt E4W699).
T5 construct: host or cells: COS-1
T5 sequence (E4W699 1-388): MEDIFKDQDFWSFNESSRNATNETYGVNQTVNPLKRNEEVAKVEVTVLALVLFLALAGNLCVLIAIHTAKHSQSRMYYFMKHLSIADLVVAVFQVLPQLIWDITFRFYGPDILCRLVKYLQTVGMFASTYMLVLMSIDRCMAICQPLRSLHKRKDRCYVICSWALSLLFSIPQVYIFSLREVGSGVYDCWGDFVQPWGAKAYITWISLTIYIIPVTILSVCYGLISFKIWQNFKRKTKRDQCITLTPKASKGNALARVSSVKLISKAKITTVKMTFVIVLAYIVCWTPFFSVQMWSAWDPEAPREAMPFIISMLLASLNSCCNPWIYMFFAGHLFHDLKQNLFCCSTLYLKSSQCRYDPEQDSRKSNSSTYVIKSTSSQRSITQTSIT
The assay can be described thus: cell-based. The assay is classed as cell-based.

Turning to `CC[C@H](C)[C@@H]1NC(=O)[C@H](Cc2ccc(O)cc2)NC(=O)[C@@H](N)CSSC[C@@H](C(=O)N2CCC[C@H]2C(=O)N[C@@H](CCCNC(=N)N)C(=O)NCC(N)=O)NC(=O)[C@H](CC(N)=O)NC(=O)[C@H](CCC(N)=O)NC1=O` [Vasotocin, vasotocin] (HELM PEPTIDE1{C.Y.I.Q.N.C.P.R.G.[am]}$PEPTIDE1,PEPTIDE1,1:R3-6:R3$$$V2.0; N-terminus assumed), the EC50 was found to be 4.26 nM in assay [1]; 1.62 nM in assay [2]; 0.5 nM in assay [3]; 0.41 nM in assay [4]; 2.77 nM in assay [5]; 15.9 nM in assay [6]. Further, the EC50 was determined as 5000 nM in assay [7] (read-out: EC50 / affinity at ZF V2R), 5.07 nM in assay [7] (read-out: Mean EC50 ZF V2R) and 0.85 nM in assay [8]. The “Selectivity hV1bR” value in assay [1] is recorded as “hV2R (x28945.5) > ZF V1a1R (x38.8) > ZF oxy (x18.7) > hOTR(x9.8) > ZF V1a2R (x5.7) > hV1bR (x3.7) > ZF V2R (x3.1) > hV1aR”. Also, the “Selectivity hOTR” value in assay [2] was “hV2R (x28945.5) > ZF V1a1R (x38.8) > ZF oxy (x18.7) > hOTR(x9.8) > ZF V1a2R (x5.7) > hV1bR (x3.7) > ZF V2R (x3.1) > hV1aR”. The “Selectivity hV2R” value in assay [3] is given as “hV2R (x28945.5) > ZF V1a1R (x38.8) > ZF oxy (x18.7) > hOTR(x9.8) > ZF V1a2R (x5.7) > hV1bR (x3.7) > ZF V2R (x3.1) > hV1aR”. The “fold more potent on hV2R than on ZF V2R” value in assay [3] is reported as ~10,000 fold. Also, in assay [4], the “Selectivity ZF V1a1R” value is reported as “hV2R (x28945.5) > ZF V1a1R (x38.8) > ZF oxy (x18.7) > hOTR(x9.8) > ZF V1a2R (x5.7) > hV1bR (x3.7) > ZF V2R (x3.1) > hV1aR”. In addition, the “Selectivity ZF V1a2R” value in assay [5] is “hV2R (x28945.5) > ZF V1a1R (x38.8) > ZF oxy (x18.7) > hOTR(x9.8) > ZF V1a2R (x5.7) > hV1bR (x3.7) > ZF V2R (x3.1) > hV1aR”. Also, the “Selectivity ZF V2R” value in assay [7] was “hV2R (x28945.5) > ZF V1a1R (x38.8) > ZF oxy (x18.7) > hOTR(x9.8) > ZF V1a2R (x5.7) > hV1bR (x3.7) > ZF V2R (x3.1) > hV1aR”. Moreover, in assay [8], the “Selectivity ZF oxy” value is recorded as “hV2R (x28945.5) > ZF V1a1R (x38.8) > ZF oxy (x18.7) > hOTR(x9.8) > ZF V1a2R (x5.7) > hV1bR (x3.7) > ZF V2R (x3.1) > hV1aR”.
